IC50 data for 2 compounds are collected here from ChEMBL document CHEMBL1201862, “PubChem BioAssay data set” (2004).

The source made the active and inactive calls. Cut-off read from the data, not from the text of the source: actives have a measured IC50 and inactives only a lower limit.

The target of this assay is Envelope glycoprotein gp160 (Human immunodeficiency virus 1, UniProt Q6QLK5). Put plainly: cell-free HIV fusion peptide-binding blockers – biochemical, uHTS, fluorescence dequenching, […] (AID 1986).
Sequence of Envelope glycoprotein gp160 (Q6QLK5 whole entry, the tested form may be a part): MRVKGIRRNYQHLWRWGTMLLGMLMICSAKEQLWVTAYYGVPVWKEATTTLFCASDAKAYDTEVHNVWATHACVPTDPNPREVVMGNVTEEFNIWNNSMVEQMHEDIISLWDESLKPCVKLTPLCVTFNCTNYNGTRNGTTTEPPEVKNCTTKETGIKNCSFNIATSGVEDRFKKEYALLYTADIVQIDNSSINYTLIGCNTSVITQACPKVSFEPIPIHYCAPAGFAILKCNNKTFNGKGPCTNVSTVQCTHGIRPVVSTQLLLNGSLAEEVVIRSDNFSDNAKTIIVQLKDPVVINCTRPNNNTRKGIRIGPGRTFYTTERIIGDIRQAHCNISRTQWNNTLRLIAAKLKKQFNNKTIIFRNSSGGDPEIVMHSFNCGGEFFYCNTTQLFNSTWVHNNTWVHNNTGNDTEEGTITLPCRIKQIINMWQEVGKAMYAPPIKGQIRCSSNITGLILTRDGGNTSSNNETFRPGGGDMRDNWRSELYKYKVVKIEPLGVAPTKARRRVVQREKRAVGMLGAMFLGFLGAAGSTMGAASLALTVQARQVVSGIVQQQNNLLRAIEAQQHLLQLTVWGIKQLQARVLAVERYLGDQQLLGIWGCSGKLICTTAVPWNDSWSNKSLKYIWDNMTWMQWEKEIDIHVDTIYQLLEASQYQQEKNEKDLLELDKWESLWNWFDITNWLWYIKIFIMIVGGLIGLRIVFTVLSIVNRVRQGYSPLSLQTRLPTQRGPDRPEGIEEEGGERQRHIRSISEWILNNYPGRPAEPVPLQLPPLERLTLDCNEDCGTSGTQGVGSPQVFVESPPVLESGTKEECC

For `O=C(N/N=C/c1cc(Cl)cc([N+](=O)[O-])c1O)NC12CC3CC(CC(C3)C1)C2`, the half-maximal inhibitory concentration (IC50) (as a rule, the concentration that gives 50% inhibition) is 23.2 µM (active). The result for `O=C(O)CN1C(=O)/C(=C\c2cc(Br)ccc2OCc2ccccc2F)SC1=S` reads 10.9 µM (active).
